# From patent publication US20220112149A1, “DRUG DESIGN METHOD ASSOCIATED WITH NATURAL PRODUCTS, PENTACYCLIC TRITERPENOID COMPOUND, PREPARATION METHOD AND APPLICATIONS THEREOF” (Huazhong Agricultural University, priority 2020, published 2022)
# Entries after “also recorded” stand apart in the source; their conditions may differ.
# Columns and labels:
# [1] = system: mildly obese mice; assay: GA-02 in mildly obese mouse model, intraperitoneal; assay type: in vivo, C57BL/6 mice
# Experimental: The animal feeding and experiment method are as follows. […] The food intake and body weights of mice in each group are measured every day.
# [2] = system: high-fat-induced obese mice; assay: GA-02 in high-fat-induced obese mouse model, intraperitoneal; assay type: in vivo, C57BL/6 mice
# Experimental: Animals are fed with 60% calorie high-fat diets (purchased from Bio-medicine) for 14 consecutive weeks. […] When the blood glucose is greater than 11 mmol/L and the body weight is greater than 42 g, the administration is started. […] The injection volume is 25 μL per day. In addition, a vehicle (25 μL DMSO) and positive drug (Celastrol) control are established. […] Mice in the blank group and GA-02 treatment group underwent pathological anatomy, to observe the changes in organs before and after administration. Samples are taken to prepare pathological sections.
# The models are constructed by feeding high-fat diets to C57BL/6 male mice for 14 weeks. Mice with body weight greater than 42 g and blood glucose higher than 11 mmol/L are obese model mice. Mice are grouped by blood glucose and body weight. Model mice in each group are given three doses of GA-02 (high-, medium-and low-doses, 4, 12, 20 mg/kg, 25 μL/day) by intraperitoneal injection for 14 consecutive days. Mice in the blank control group are given DMSO (25 μL/day) by intraperitoneal injection, and the food intakes and body weights are recorded every day.
# [3] = system: obese mice of about 45 g; assay: GA-02 intragastric administration in obese mice; assay type: in vivo; settings: 40 mg/kg intragastric, two weeks
# Experimental: The lean mice of about 25 g, mildly obese mice of weighing about 30 g, and obese mice of about 45 g are given blank vehicle and high-dose GA-02 (40 mg/kg) by intragastric administration, respectively.
# [4] = high-dose (20 mg/kg) i.p., second day
# [5] = high-dose (20 mg/kg) i.p., third day
# [6] = low-, medium- and high-dose (4, 12, 20 mg/kg) i.p.
# [7] = low-, medium- and high-dose (4, 12, 20 mg/kg) i.p., 14 days
smiles,measurement,setting,value
"CC1(C(=O)O)CCC2(C)CCC3(C)C(=CC(=O)C4C5(C)C=C(O)C(=O)C(C)(C)C5CCC43C)C2C1 (stereo not shown) [GA-02, 3,11-dicarbonyl-1,12-diene-2-hydroxy-oleanane-30 carboxylic acid]",food intake and body weight vs vehicle control group,"[1]; high-dose i.p., mild obesity group, body weight of about 28 g",significantly lower
same,effect on suppressing appetite and reducing body weight (summary),"[1]; intraperitoneal injection, mildly obese mice",significant effect
same,accumulated fats in the visceral tissues,"[2]; after administration for two weeks, dissection",completely dissipated
same,average daily food intake decreased compared to the vehicle control group,"[2]; first week, high dose 20 mg/kg i.p.",63.2%
same,average daily food intake,"[2]; first week, high dose 20 mg/kg i.p., vehicle 2.31±0.18 g",0.85 ± 0.23 g
same,average daily food intake decreased compared to the vehicle control group,"[2]; first week, low dose 4 mg/kg i.p.",20.8%
same,average daily food intake,"[2]; first week, low dose 4 mg/kg i.p., vehicle 2.31±0.18 g",1.83 ± 0.28 g
same,average daily food intake decreased compared to the vehicle control group,"[2]; first week, medium dose 12 mg/kg i.p.",27.3%
same,average daily food intake,"[2]; first week, medium dose 12 mg/kg i.p., vehicle 2.31±0.18 g",1.68 ± 0.35 g
same,body weight reduced by,"[2]; high dose 20 mg/kg i.p., 14 days",26.42±0.73%
same,body weight two weeks after administration,"[2]; high dose 20 mg/kg i.p., 14 days, from 42.14±1.37 g",30.07 ± 1.23 g
same,lipid droplets in the liver (oil red O and H&E staining),[2]; high-dose (20 mg/kg) i.p.,completely disappeared
same,liver function indexes AST and ALT vs vehicle control group,[2]; high-dose (20 mg/kg) i.p.,significantly lower
same,average daily food intake,"[2]; high-dose (20 mg/kg) i.p., first day of administration, day 0: 2.0±0.18 g",0.60 ± 0.02 g
same,body weight,"[2]; high-dose (20 mg/kg) i.p., first day, from 42.09±0.42 g",40.98 ± 0.57 g
same,average daily food intake,[2]; [4],0.47 ± 0.16 g
same,body weight,[2]; [4],39.94 ± 0.62 g
same,average daily food intake,[2]; [5],0.39 ± 0.11 g
same,body weight,[2]; [5],39.23 ± 0.71 g
same,blood glucose tolerance (GTT) and insulin tolerance (ITT),[2]; high-dose administration group,significantly improved
same,effect on suppressing appetite and reducing body weight (summary),"[2]; intraperitoneal injection, obese mice",strong effect
same,body weight reduced by,"[2]; low dose 4 mg/kg i.p., 14 days",9.88±2.37%
same,body weight two weeks after administration,"[2]; low dose 4 mg/kg i.p., 14 days, from 42.50±1.71 g",38.46 ± 0.95 g
same,fat contents vs obese model mice (NMR body fat quantitative analysis),[2]; [6],significantly lower
same,lean body masses (NMR body fat quantitative analysis),[2]; [6],no significant change
same,fasting blood glucose level,[2]; [7],reduce to a normal level; also recorded: return to the normal levels
same,weights of liver and epididymal fat compared to the vehicle control group,[2]; [7],decrease in a dose-dependent manner
same,body weight reduced by,"[2]; medium dose 12 mg/kg i.p., 14 days",13.15±2.73%
same,body weight two weeks after administration,"[2]; medium dose 12 mg/kg i.p., 14 days, from 41.41.±1.17 g",35.45 ± 1.15 g
same,average daily food intake decreased compared to the vehicle control group,"[2]; second mention of 'first week', high dose 20 mg/kg i.p.",68.8%
same,average daily food intake,"[2]; second mention of 'first week', high dose 20 mg/kg i.p., vehicle 2.47±0.13 g",0.70 ± 0.16 g
same,average daily food intake decreased compared to the vehicle control group,"[2]; second mention of 'first week', low dose 4 mg/kg i.p.",37.2%
same,average daily food intake,"[2]; second mention of 'first week', low dose 4 mg/kg i.p., vehicle 2.47±0.13 g",1.55 ± 0.12 g
same,average daily food intake decreased compared to the vehicle control group,"[2]; second mention of 'first week', medium dose 12 mg/kg i.p.",45.3%
same,average daily food intake,"[2]; second mention of 'first week', medium dose 12 mg/kg i.p., vehicle 2.47±0.13 g",1.35 ± 0.18 g
same,average daily food intake reduced by,[3],50%
same,body weight reduced by,[3],21%
